Experimental findings from US12215067B2, “Chemical compounds targeting the eye and use thereof in the treatment of eye diseases” (BIOPHYTIS, priority 2019, dated 2025) are described below.

Each structure is given as a SMILES string.

The nature of series [1]: Pharmacokinetic study via oral administration in mice, ocular concentrations. Type of series: in vivo, mice C57BL/6. The following applies: for Tmax: C57BL/6, mouse, eye, po; for Tmax / Eye CMax: mice, p.o. 50 mg/kg in VitE-TPGS 20% in sodium bicarbonate buffer (0.1M); for Eye Exposure 50 mg/kg p.o. AUC: Table 3, repeats the eye exposure of Table 2. The protocol:
(§1) The pharmacokinetic study of the chemical compounds (C) following the oral administration thereof was conducted using mice C57BL/6 (January, 53940 The Genest Saint Isle, France). The chemical compounds derived from norbixin (C) were administered at a dose of 50 mg/kg of body weight. After administration, the blood was sampled at the tail at t=0.25 h; 0.5 h; 1 h; 3 h; 6 h and 8 h. The blood samples were centrifuged and the plasmas taken. The dosage of the plasma samples made it possible to determine pharmacokinetic parameters, namely Cmax, which corresponds to the maximum concentration observed after the administration of the molecule, Tmax which is the time required to reach maximum concentration after administration of the molecule and the AUC: the area under the curve which corresponds to the plasma exposure (FIG. 2).
In parallel, the ocular concentrations of the chemical compounds derived from norbixin (C) were dosed in the following way (FIG. 1): both eyes of each mouse were taken in Precellys tubes and stored at −80° C. until the time of dosing. The eyes are then ground in the Precellys tubes with a bench homogenizer, Fast-prep (Fischer Scientific, Hampton, United States) in a mixture of organic solvents, in a first step with 500 μL of chloroform/methanol (1/1, v/v) then 500 μL of chloroform/dichloromethane (1/1, v/v). The supernatants are recovered at each step and transferred to a 96-well plate of 2 mL.
For the quantification of the chemical compounds C, a calibration curve is carried out with 8 standards (5 to 5,000 ng/mL) in the same organic solvent mixtures and transferred (100 μL) to the 96-well plate of 2 mL.
The supernatants and standards are evaporated in a EZ2 (Genevac, Ipswich, United Kingdom), without heating, then taken with 100 μL of DMSO/methanol (20:80, v/v) before being transferred to a 96-well plate of 200 μL.
(§2) The LC-MSMS analysis is carried out with a HPLC 1200 Infinity chain (Agilent Technologies, Santa-Clara, United States), a UV detector and a mass spectrometer QQQ6420 (Agilent Technologies Santa-Clara, United States). The injection volume is 5 μL. The chemical compounds C are eluted on an inverse phase column C18 (2.1*50 mm, particles 3 μm; Ace-C18-Excel, AIT) with a gradient of acetonitrile and water (containing 0.1% formic acid) and a flow rate of 0.3 mL/min. The conditions of the gradient can change according to the chemical compound C analyzed. The UV detector analyzes at 460 nm and the mass spectrometer analyzed in Mode MRM—Positive.
(§3) Table 2 discloses the pharmacokinetic results of the chemical compounds C following the administration p.o. 50 mg/kg in D-α-Tocopheryl polyethylene glycol 1000 succinate (VitE-TPGS) 20% in a sodium bicarbonate buffer (0.1M).

Series [2] relates to primary cultures of RPE of adult pigs. Put plainly: In vitro photoprotection of RPE cells illuminated with blue light in the presence of A2E. The series is classed as cell-based, pig. Particulars: Sus scrofa, RPE, A2E 30 μM, survival 24 h after illumination; for viability at 5 µM: 5 μM compound; for viability at 10 µM: 10 μM compound; for viability at 20 µM: 20 μM compound. The text has this: In addition to better distribution in the target-tissue, selecting new compounds must also be based on good photo-protective activity that limits the loss of the cells of the RPE and thus reducing the retinal degeneration observed during the AMD and other degenerative diseases such as Retinitis pigmentosa and Stargardt's disease. At the cellular level, on cultures of cells the RPE coming from pig retina, Fontaine et al. (2016) have shown that a treatment with norbixin (BIO201) protects the cells of the RPE against apoptosis following an illumination in the presence of A2E (80% survival 24 h after exposure). This same screening test according to the percentage of photoprotection was used so as to determine its modulation by and the chemical compounds derived from norbixin (C) object of the present invention in comparison with the photo-protective effect of norbixin and characterize these modulations from a statical standpoint.
The test in vitro described hereinabove and intended to study the photo-protective effect of norbixin was used so as to quantify the photo-protective effects of the various chemical compounds derived from norbixin (C) on the cells of the RPE illuminated with blue light in the presence of A2E (FIG. 3). The photo-protective effect of the molecules was evaluated in a phototoxicity cellular model induced by treatment by A2E followed by an illumination with blue light. The term “blue radiation” means the radiation corresponding to the blue band of the visible light spectrum, i.e. of a wavelength comprised between 435 and 490 nm. This model uses primary cultures of RPE of adult pigs. The cell survival is quantified thanks to a test of cellular viability. At −48 h the compounds to be tested (in solution at 5 mM in the DMSO) are added to obtain the final concentrations of 1 to 20 μM) then at −19 h of the A2E (final concentration 30 μM) and the cells (time 0 h) are illuminated. 24 h after the survival of the cells is measured. The acquisition of images, as well as the processing thereof, are carried out using a fluorescence microscope controlled by the Metamorph software and a dedicated quantification program. The experiments are conducted on a 96-well microplate in quadruplicate and the experiment is reproduced at least four times. The results are expressed in the form of a ratio representing the number of living cells in the wells treated by the molecules to be tested, divided by the number of living cells in the controlled wells (treated by the dilution medium without A2E). This test made it possible hereinabove to reveal the photo-protective activity of norbixin (Fontaine et al. 2016).

Series [3] is described as follows: Pharmacokinetic study via oral administration in mice, plasma concentrations. Particulars: C57BL/6, mouse, in vivo, po, 50 mg/kg. The series is classed as in vivo, mice C57BL/6. The method, then:
as §1, §2, §3

Consider `CC(=C/C=C/C(C)=C/C=C/C=C(C)/C=C/C=C(C)/C=C/C(=O)N1CCC(CO)CC1)/C=C/C(=O)O` [C14, 1-[4-hydroxymethylpiperidinamido](2E,4E,6E,8E,10E,12E,14E,16Z,18E)-4,8,13,17-tetramethylicosa-2,4,6,8,10,12,14,16,18-nonaenedioate], for which, in series [1], the Tmax (usually the time from dosing to the highest level) is 60 min, the “Eye Exposure 50 mg/kg p.o. AUC” value was 322.5 ng · h/eye and the “Eye CMax” value is on record as 43.2 ng/eye. In addition, in series [2], the viability – broadly, a read-out of living cells in per cent, often relative to untreated cells – at 5 µM is 3.1%; the viability at 10 µM was 46.8%; the viability at 20 µM came to 79.3%. Moreover, in series [3], the highest level (Cmax) was 19000 ng/mL, the “Plasma Exposure” value is 162200 ng·h/mL and the Tmax came to 30 min.
For the compound `COC1CCCN(C(=O)/C=C/C(C)=C/C=C/C(C)=C/C=C/C=C(C)/C=C/C=C(C)\C=C\C(=O)O)C1` (centres unmarked) [C20, 1-[3-methoxypiperidinamido](2E,4E,6E,8E,10E,12E,14E,16Z,18E)-4,8,13,17-tetramethylicosa-2,4,6,8,10,12,14,16,18-nonaenedioate], in series [1], the time of peak concentration (Tmax) came out at 120 min, the “Eye Exposure 50 mg/kg p.o. AUC” value is recorded as 421.9 ng · h/eye and the “Eye CMax” value came out at 80.4 ng/eye. Also, in series [2], the viability at 5 µM was determined as 65.6%, the viability at 10 µM was 65.6% and the viability at 20 µM stood at 79%. In series [3], the peak level (Cmax) was 35000 ng/mL, the “Plasma Exposure” value came to 160400 ng·h/mL and the Tmax was 60 min.
As for `CCCOC1CCN(C(=O)/C=C/C(C)=C/C=C/C(C)=C/C=C/C=C(C)/C=C/C=C(C)\C=C\C(=O)O)CC1` [C22, 1-[4-n-propoxypiperidinamido](2E,4E,6E,8E,10E,12E,14E,16Z,18E)-4,8,13,17-tetramethylicosa-2,4,6,8,10,12,14,16,18-nonaenedioate], in series [1], the time of peak concentration (Tmax) amounted to 120 min, the “Eye Exposure 50 mg/kg p.o. AUC” value is on record as 358.5 ng · h/eye and the “Eye CMax” value was determined as 42.1 ng/eye. In series [2], the viability at 5 µM was 64.5%, the viability at 10 µM is 72.8% and the viability at 20 µM turned out to be 66%. In addition, in series [3], the Cmax (commonly the maximum level reached in the sampled fluid or tissue) worked out at 12800 ng/mL, the “Plasma Exposure” value worked out at 37250 ng·h/mL and the Tmax turned out to be 15 min.
`CC(=C/C=C/C(C)=C/C=C/C=C(C)/C=C/C=C(C)/C=C/C(=O)N[C@H]1CC[C@H](O)CC1)/C=C/C(=O)O` [C19, 1-[(E)-4-hydroxycyclohexamido](2E,4E,6E,8E,10E,12E,14E,16Z,18E)-4,8,13,17-tetramethylicosa-2,4,6,8,10,12,14,16,18-nonaenedioate]: in series [1], the Tmax came to 30 min, the “Eye Exposure 50 mg/kg p.o. AUC” value is listed as 37.5 ng · h/eye and the “Eye CMax” value was 5.7 ng/eye. Further, in series [2], the viability at 5 µM is 60.6%, the viability at 10 µM was 60.6% and the viability at 20 µM worked out at 79.9%. Further, in series [3], the concentration peaked (Cmax) at 6620 ng/mL, the “Plasma Exposure” value worked out at 22800 ng·h/mL and the Tmax turned out to be 15 min.
On to `CC(=C/C=C/C(C)=C/C=C/C=C(C)/C=C/C=C(C)/C=C/C(=O)NCCO)/C=C/C(=O)O` [C4, 1-[2-hydroxyethanamido](2E,4E,6E,8E,10E,12E,14E,16Z,18E)-4,8,13,17-tetramethylicosa-2,4,6,8,10,12,14,16,18-nonaenedioate], for which, in series [1], the Tmax is 30 min, the “Eye Exposure 50 mg/kg p.o. AUC” value came out at 30.0 ng · h/eye and the “Eye CMax” value amounted to 10.2 ng/eye. Besides, in series [2], the viability at 5 µM came out at 16.4%, the viability at 10 µM is 36% and the viability at 20 µM stood at 67.2%. Further, in series [3], the peak level (Cmax) was 57100 ng/mL, the “Plasma Exposure” value turned out to be 208600 ng·h/mL and the Tmax was determined as 60 min.
For the compound `CC(=C/C=C/C(C)=C/C=C/C=C(C)/C=C/C=C(C)/C=C/C(=O)N1CCC(C(=O)O)CC1)/C=C/C(=O)O` [C18, 1-[4-carboxypiperidinamido](2E,4E,6E,8E,10E,12E,14E,16Z,18E)-4,8,13,17-tetramethylicosa-2,4,6,8,10,12,14,16,18-nonaenedioate], in series [1], the Tmax stood at 120 min, the “Eye Exposure 50 mg/kg p.o. AUC” value is on record as 307.8 ng · h/eye and the “Eye CMax” value is listed as 27.7 ng/eye. Further, in series [2], the viability at 5 µM came to 27.3%, the viability at 10 µM was found to be 43.1% and the viability at 20 µM turned out to be 63.8%. Further, in series [3], the Cmax is 61600 ng/mL, the “Plasma Exposure” value came to 948840 ng·h/mL and the Tmax amounted to 30 min.
For `CCOCC1CCN(C(=O)/C=C/C(C)=C/C=C/C(C)=C/C=C/C=C(C)/C=C/C=C(C)\C=C\C(=O)O)CC1` [C23, 1-[4-ethylmethoxypiperidinamido](2E,4E,6E,8E,10E,12E,14E,16Z,18E)-4,8,13,17-tetramethylicosa-2,4,6,8,10,12,14,16,18-nonaenedioate], in series [1], the Tmax was 120 min, the “Eye Exposure 50 mg/kg p.o. AUC” value was 54.7 ng · h/eye and the “Eye CMax” value was 11 ng/eye. Moreover, in series [2], the viability at 5 µM came to 38.4%, the viability at 10 µM was 59.2% and the viability at 20 µM worked out at 73.1%. In series [3], the Cmax is 5010 ng/mL, the “Plasma Exposure” value was determined as 24100 ng·h/mL and the Tmax stood at 60 min.
Take `CC(=C/C=C/C(C)=C/C=C/C=C(C)/C=C/C=C(C)/C=C/C(=O)N1CCCCC1)/C=C/C(=O)O` [C3, 1-[piperidinamido](2E,4E,6E,8E,10E,12E,14E,16Z,18E)-4,8,13,17-tetramethylicosa-2,4,6,8,10,12,14,16,18-nonaenedioate]: in series [1], the Tmax is 30 min, the “Eye Exposure 50 mg/kg p.o. AUC” value was found to be 19.1 ng · h/eye and the “Eye CMax” value stood at 5.1 ng/eye. Also, in series [2], the viability at 5 µM came to 11.3%, the viability at 10 µM worked out at 68.1% and the viability at 20 µM stood at 45.1%. In series [3], the highest level (Cmax) was 4050 ng/mL, the “Plasma Exposure” value stood at 10370 ng·h/mL and the Tmax was determined as 30 min.
Consider `CC(=C/C=C/C(C)=C/C=C/C=C(C)/C=C/C=C(C)/C=C/C(=O)N1CCSCC1)/C=C/C(=O)O` [C6], for which, in series [1], the Tmax came to 30 min, the “Eye Exposure 50 mg/kg p.o. AUC” value stood at 23.1 ng · h/eye and the “Eye CMax” value was 3.9 ng/eye. In series [2], the viability at 10 µM was found to be 60.6% and the viability at 20 µM is 19.1%. Moreover, in series [3], the Cmax came out at 3950 ng/mL, the “Plasma Exposure” value worked out at 10810 ng·h/mL and the Tmax came to 30 min.
